In patent US20220040255A1, “CHEMOTHERAPEUTIC REMODELING OF THE GUT MICROBIOME” (THE SCRIPPS RESEARCH INSTITUTE, priority 2018, published 2022):
Where a SMILES comes first, the peptide text is derived from it. [ ]: non-standard residue; d: D form.

Assays:
[1] = Pharmacokinetics of c[wLwReQeR] via different routes of administration; assay type: in vivo, mice
Experimental: Pharmacokinetics. These experiments were carried out in part courtesy of Carol S. Ryan, Debra J. Search, Ricardo A. Garcia, and David A. Gordon at Bristol Myers Squibb (Hopewell, N.J., USA). Male Balb/C or C57BL/6 mice (20 g) were maintained on a chow diet. The cyclic peptide c[wLwReQeR] (SEQ ID NO:11) was dissolved in PBS containing 1% sucrose or 95% 50 mM acetate buffer containing 10% sucrose, 5% DMSO (pH=4), and sterile filtered through a 0.22-μm syringe filter before injection. Mice were fasted beginning 12 h before dosing, and continued the fast until after the 8-h time point blood draw was completed. Groups of three mice received a dose of the cyclic peptide via […] (5 mL/kg for subcutaneous and intraperitoneal, 10 mL/kg for oral gavage). Blood was drawn (30-60 μL) from the retro-orbital sinus into a heparinized capillary tube before dosing (0 min) and at different intervals from 30 min to 8 h after dosing. Plasma was isolated immediately from the whole blood by centrifugation at 5,000 rpm for 10 min at 4° C. Immediately after the plasma was isolated, 20 μL of plasma was acidified with 20 μL of 5% TFA to break peptide-protein interactions, and 40 μL of acetonitrile was then added. After vortexing for 30 s, the mixture was centrifuged at 13,000 rpm for 10 min at 4° C. The resultant supernatant was analyzed by using LC-MS SIM as described below.
LC-MS SIM quantitation of peptide concentration. Cyclic peptide concentrations were quantified by using reverse-phase HPLC coupled with mass spectrometry. The electrospray ionization mass spectrometry measurements were carried out in the positive ionization mode using a single quadrupole mass spectrometer (Hewlett Packard HP 1100 MSD series). 10 or 20 μL of sample were injected through a C8 reverse-phase column (Zorbax 300-SB, 4.6 mm×150 mm, 5 μm) using a flow rate of 1.5 mL/min and binary gradients of solvent A (99% H2O, 0.1% formic acid, 0.01% TFA) and solvent B (99% acetonitrile, 0.1% formic acid, 0.01% TFA). Mass detection was carried out in the selected ion monitoring (SIM) mode for the positive molecular ion, with the optimized fragmentor and capillary voltages of 180 V and 5 kV, respectively. The selected monitoring mass for cyclic peptide c[wLwReQeR] (SEQ ID NO:11) was 592.8 ([M+2H]^2+). For quantitative calibration, standard curves were established using mouse EDTA-anticoagulated plasma spiked with various concentrations of the peptide. The calibration curve was established by using linear fitting of the data, with correlation coefficient ≥0.98.

[2] = test system: intestinal absorption of cholesterol; test: fecal dual-isotope cholesterol absorption assay; assay type: in vivo, LDLr−/− mice; settings: 180 μM in drinking water, 2-wk treatment, WD
Experimental: In vivo cholesterol absorption assay. This experiment was carried out courtesy of Carol S. Ryan, Debra J. Search, Ricardo A. Garcia, and David A. Gordon at Bristol Myers Squibb (Hopewell, N.J., USA). To assess the effects of c[wLwReQeR] (SEQ ID NO:11) on intestinal absorption of cholesterol, male LDLr^−/− mice (Jackson Laboratories) ranging from 8-10 weeks old were acclimated to single housing in standard solid bottom bedded cages for at least one week at BMS facilities. During the acclimation period, the mice were fed a chow diet ad libitum. At the start of the treatment period and for the duration of the study, mice were switched to high-fat, high-cholesterol Western diet (Research Diets D12108C) containing 1.25% cholesterol and 20% fat ad libitum. The peptide was administered in the drinking water ad libitum as a solution with 1% sucrose at 180 μM (˜35 mg/kg/day). […]
Following a 2-wk treatment period, cholesterol absorption was measured using a dual fecal isotope ratio method. […] Plasma (˜20 μl) was added to 5 ml of Opti-fluor Scintillation cocktail (Packard Bioscience #6013199) and counted on ^3H and ^14C channels to evaluate cholesterol efflux. Radioactivity in feces was analyzed as follows: for each animal, feces recovered over the 48 hours was dried overnight at 50° C. and 0.1 gram of dried feces was transferred to a glass tube. […]

SMILES: CC(C)C[C@@H]1NC(=O)[C@@H](Cc2c[nH]c3ccccc23)NC(=O)[C@H](CCCNC(=N)N)NC(=O)[C@@H](CCC(=O)O)NC(=O)[C@H](CCC(N)=O)NC(=O)[C@@H](CCC(=O)O)NC(=O)[C@H](CCCNC(=N)N)NC(=O)[C@@H](Cc2c[nH]c3ccccc23)NC1=O [c[wLwReQeR]] (cyclo([dW]L[dW]R[dE]Q[dE]R))
- Tmax ([1]; male, C57BL/6, mouse, plasma, oral gavage, 15 mg/kg, C57B1/6): < 3 h
- AUC(0-t) ([1]; male, C57BL/6, mouse, plasma, oral gavage, 15 mg/kg, C57B1/6, read-out: AUC 0-24 h): < 3 nM·h
- Cmax ([1]; male, mouse, plasma, ip, 16-mg/kg i.p., BALB/c mice, read-out: peak plasma concentration): 13 µM
- peptide in plasma after oral gavage ([1]; oral gavage, limit of detection=3 nM): not detectable
- absorption of dietary cholesterol [2]: did not reduce
